# Assay results taken from patent US8389247B2, “Physiogenomic method for predicting diabetes and metabolic syndromes induced by psychotropic drugs” (priority 2006, dated 2013).
# Experiments:
# [1] = Outcome variables of patients on each psychotropic drug broken down by demographic factors (Covariates tables); format: in vivo, human
# [2] = Physiogenomic SNP association screen: single-SNP coefficients for metabolic syndrome outcomes in patients on psychotropic drugs
# From the text: Various SNPs associated with, for example, the observation of various parameters of metabolic syndromes in patients on psychotropic drugs were screened. The endpoints analyzed were the blood levels of LDL, HDL, and glucose; blood pressure; body mass index; waist circumference; and metabolic syndromes index. The physiogenomic model was developed using the following procedure: 1) Establish a covariate model using only the demographic and clinical variables, 2) Screen for associated genetic markers by testing each SNP against the unexplained residual of the covariate model, and 3) Establish a revised model incorporating the significant associations from the SNP screen. All models are simple linear regression models, but other well-known statistical methods are contemplated to be useful.
# In the SNP screen (step 2), the p-values for each SNP were obtained by adding the SNP to the covariate model and comparing the resulting model improvement with up to 10,000 simulated model improvements using the same data set, but with the genotype data randomly permuted to remove any true association. This method produces a p-value that is a direct, unbiased, and model-free estimate of the probability of finding a model as good as the one tested when the null hypothesis of no association is true. All SNPs with a screening p-value of better than 0.003 were selected to be included in the physiogenomic model (step 3).
# Data Analysis. Covariates were analyzed using multiple linear regression and the stepwise procedure. An extended linear model was constructed including the significant covariate and the SNP genotype. SNP genotype was coded quantitatively as a numerical variable indicating the number of minor alleles: 0 for major homozygotes, 1 for heterozygotes, and 2 for minor homozygotes. The F-statistic p-value for the SNP variable was used to evaluate the significance of association. The validity of the p-values were tested by performance of an independent calculation of the p-values using permutation testing. To account for the multiple testing of multiple SNPs, adjusted p-values were calculated using Benjamini and Hochbergs false discovery rate (FDR) procedure [Reinere A, Yekutiele D, Benjamini Y: Identifying differentially expressed genes using false discovery rate controlling procedures. Bioinformatics 19:368-375 (2003); Benjamini Y, Hochberg Y: Controlling the false discovery rate: a practical and powerful approach to multiple testing. Journal of the Royal Statistical Society, Series B 57:289-300 (1995); Benjamini Y, Hochberg Y: On the adaptive control of the false discovery rate in multiple testing with independent statistics. Journal of Educational and Behavioral Statistics 25:60-83 (2000)]. In addition, the power for detecting an association based on the Bonferroni multiple comparison adjustment was evaluated. For each SNP, the effect size in standard deviations that was necessary for detection of an association at a power of 80% (20% false negative rate) was calculated using the formula: […]
structure (smiles),measurement,setting,value
"Cc1nc2n(c(=O)c1CCN1CCC(c3noc4cc(F)ccc34)CC1)CCCC2 [Risperidone, risperidone]",BM,[1]; Age 20-30,77.82
same,BMI,[1]; Age 20-30,25.55
same,Glucose,[1]; Age 20-30,85.42
same,HDL,[1]; Age 20-30,43.50
same,LDL,[1]; Age 20-30,93.20
same,TC,[1]; Age 20-30,166.80
same,Waist,[1]; Age 20-30,92.78
same,dBP,[1]; Age 20-30,75.20
same,log (TG),[1]; Age 20-30,4.801
same,sBP,[1]; Age 20-30,116.80
same,BM,[1]; Age 30-40,77.98
same,BMI,[1]; Age 30-40,25.60
same,Glucose,[1]; Age 30-40,93.38
same,HDL,[1]; Age 30-40,52.19
same,LDL,[1]; Age 30-40,92.69
same,TC,[1]; Age 30-40,185.54
same,Waist,[1]; Age 30-40,92.34
same,dBP,[1]; Age 30-40,76.77
same,log (TG),[1]; Age 30-40,5.129
same,sBP,[1]; Age 30-40,118.04
same,BM,[1]; Age 40-50,77.81
same,BMI,[1]; Age 40-50,25.80
same,Glucose,[1]; Age 40-50,95.03
same,HDL,[1]; Age 40-50,52.00
same,LDL,[1]; Age 40-50,100.78
same,TC,[1]; Age 40-50,181.71
same,Waist,[1]; Age 40-50,97.23
same,dBP,[1]; Age 40-50,75.10
same,log (TG),[1]; Age 40-50,4.888
same,sBP,[1]; Age 40-50,115.73
same,BM,[1]; Age 50-60,76.52
same,BMI,[1]; Age 50-60,29.45
same,Glucose,[1]; Age 50-60,109.00
same,HDL,[1]; Age 50-60,59.50
same,LDL,[1]; Age 50-60,85.80
same,TC,[1]; Age 50-60,185.70
same,Waist,[1]; Age 50-60,100.50
same,dBP,[1]; Age 50-60,74.20
same,log (TG),[1]; Age 50-60,5.182
same,sBP,[1]; Age 50-60,123.80
same,BM,[1]; Age 60-70,87.60
same,BMI,[1]; Age 60-70,26.40
same,Glucose,[1]; Age 60-70,103.00
same,HDL,[1]; Age 60-70,54.00
same,LDL,[1]; Age 60-70,111.00
same,TC,[1]; Age 60-70,191.00
same,Waist,[1]; Age 60-70,103.00
same,dBP,[1]; Age 60-70,80.00
same,log (TG),[1]; Age 60-70,4.875
same,sBP,[1]; Age 60-70,118.00
same,BM,[1]; Age <20,97.73
same,BMI,[1]; Age <20,28.93
same,Glucose,[1]; Age <20,91.67
same,HDL,[1]; Age <20,60.00
same,LDL,[1]; Age <20,113.00
same,TC,[1]; Age <20,197.33
same,Waist,[1]; Age <20,110.33
same,dBP,[1]; Age <20,71.33
same,log (TG),[1]; Age <20,4.778
same,sBP,[1]; Age <20,123.33
same,BM,[1]; All,78.42
same,BMI,[1]; All,26.16
same,Glucose,[1]; All,94.14
same,HDL,[1]; All,51.37
same,LDL,[1]; All,96.18
same,TC,[1]; All,180.69
same,Waist,[1]; All,95.90
same,dBP,[1]; All,75.40
same,log (TG),[1]; All,4.958
same,sBP,[1]; All,117.58
same,BM,[1]; Gender female,73.38
same,BMI,[1]; Gender female,27.05
same,Glucose,[1]; Gender female,91.57
same,HDL,[1]; Gender female,55.74
same,LDL,[1]; Gender female,94.32
same,TC,[1]; Gender female,179.74
same,Waist,[1]; Gender female,95.39
same,dBP,[1]; Gender female,74.74
same,log (TG),[1]; Gender female,4.861
same,sBP,[1]; Gender female,116.84
same,BM,[1]; Gender male,81.45
same,BMI,[1]; Gender male,25.62
same,Glucose,[1]; Gender male,95.68
same,HDL,[1]; Gender male,48.73
same,LDL,[1]; Gender male,97.30
same,TC,[1]; Gender male,181.27
same,Waist,[1]; Gender male,96.20
same,dBP,[1]; Gender male,75.79
same,log (TG),[1]; Gender male,5.017
same,sBP,[1]; Gender male,118.03
same,BM,[1]; Heritage AA,80.46
same,BMI,[1]; Heritage AA,27.14
same,Glucose,[1]; Heritage AA,115.56
same,HDL,[1]; Heritage AA,58.50
same,LDL,[1]; Heritage AA,95.50
same,TC,[1]; Heritage AA,173.80
same,Waist,[1]; Heritage AA,92.90
same,dBP,[1]; Heritage AA,78.00
same,log (TG),[1]; Heritage AA,4.478
same,sBP,[1]; Heritage AA,117.80
same,BM,[1]; Heritage Cauc.,78.19
same,BMI,[1]; Heritage Cauc.,26.05
same,Glucose,[1]; Heritage Cauc.,92.00
same,HDL,[1]; Heritage Cauc.,50.58
same,LDL,[1]; Heritage Cauc.,96.25
same,TC,[1]; Heritage Cauc.,181.45
same,Waist,[1]; Heritage Cauc.,96.23
same,dBP,[1]; Heritage Cauc.,75.11
same,log (TG),[1]; Heritage Cauc.,5.011
same,sBP,[1]; Heritage Cauc.,117.56
same,BM,[1]; patients on the named drug,78.42
same,BMI,[1]; patients on the named drug,26.16
same,Glucose,[1]; patients on the named drug,94.14
same,HDL,[1]; patients on the named drug,51.37
same,LDL,[1]; patients on the named drug,96.18
same,Log (TG),[1]; patients on the named drug,4.958
same,TC,[1]; patients on the named drug,180.69
same,Waist,[1]; patients on the named drug,95.90
same,dBP,[1]; patients on the named drug,75.40
same,sBP,[1]; patients on the named drug,117.58
"O=C1Cc2cc(CCN3CCN(c4nsc5ccccc45)CC3)c(Cl)cc2N1 [Ziprasidone, ziprasidone]",LDL,[1]; Age 20-30,79.20
same,LDL,[1]; Age 30-40,98.42
same,LDL,[1]; Age 40-50,75.18
same,LDL,[1]; Age 50-60,135.00
same,LDL,[1]; Age 60-70,154.00
same,LDL,[1]; Age <20,89.50
same,LDL,[1]; All,88.32
same,LDL,[1]; Gender female,98.11
same,LDL,[1]; Gender male,79.05
same,LDL,[1]; Heritage AA,63.17
same,LDL,[1]; Heritage Cauc.,93.19
same,Log (TG),"[1]; human, in vivo",4.968
same,LDL,[1]; patients on the named drug,88.32
same,Coeff. LDL Cholesterol,"[2]; SNP rs40318, gene PIK3R1, allele TC, p 4.80E−02",22.72
same,Coeff. LDL Cholesterol,"[2]; SNP rs1322783, gene DISC1, allele TC, p 1.26E−02",−27.8566
same,Coeff. LDL Cholesterol,"[2]; SNP rs1614845, gene HRH3, allele TC, p 4.20E−02",−21.1697
same,Coeff. LDL Cholesterol,"[2]; SNP rs1951795, gene HIF1A, allele AC, p 2.81E−02",17.21
same,Coeff. LDL Cholesterol,"[2]; SNP rs2067477, gene CHRM1, allele AC, p 4.47E−02",−23.7833
same,Coeff. LDL Cholesterol,"[2]; SNP rs2228139, gene IL1R1, allele GC, p 1.74E−02",−42.4134
same,Coeff. LDL Cholesterol,"[2]; SNP rs2269935, gene PFKM, allele AC, p 1.38E−02",−29.0481
same,Coeff. LDL Cholesterol,"[2]; SNP rs2301108, gene HIF1A, allele AG, p 4.60E−03",27.41
same,Coeff. LDL Cholesterol,"[2]; SNP rs2856929, gene PKM2, allele AG, p 2.55E−02",−21.0303
same,Coeff. HDL Cholesterol,"[2]; SNP rs3757868, gene ACHE, allele AG, p 2.11E−02",9.221
same,Coeff. Ratio of Total Cholesterol to HDL Cholesterol,"[2]; SNP rs3757868, gene ACHE, allele AG, p 2.47E−02",−0.8869
same,Coeff. LDL Cholesterol,"[2]; SNP rs3816873, gene MTP, allele TC, p 2.73E−02",−19.1531
same,Coeff. LDL Cholesterol,"[2]; SNP rs6700734, gene TNFSF6, allele AG, p 1.15E−02",21.53
same,Coeff. LDL Cholesterol,"[2]; SNP rs6967107, gene WBSCR14, allele AC, p 5.00E−02",−28.3763
same,Coeff. LDL Cholesterol,"[2]; SNP rs6976017, gene CYP3A5, allele AG, p 4.34E−03",−45.408
same,Coeff. LDL Cholesterol,"[2]; SNP rs7816340, gene ADRA1A, allele TC, p 4.22E−02",24.97
same,Coeff. LDL Cholesterol,"[2]; SNP rs10082776, gene RARG, allele AG, p 1.92E−02",−24.15
